Data as given in ChEMBL document CHEMBL1139505, “Synthesis and structure-activity-relationships of 1H-imidazo[4,5-c]quinolines that induce interferon production” (2005).

How the values were obtained:
[1] = Minimum effective concentration required to induce interferon (IFN) production in human peripheral blood mononuclear cells (hPBMC); format: functional; conditions: read-out: MEC
Homo sapiens = species on record: Homo sapiens; assay: Minimum effective concentration required to induce interferon (IFN) production in human peripheral blood mononuclear cells (hPBMC); NI = no induction at highest concentration (5.0 ug/mL); format: functional

Row | Compound | minimal effective concentration [1] [µg/mL] | MEC (Homo sapiens)
1 | CC(C)Cn1c(Cc2ccccc2)nc2c(N)nc3ccccc3c21 | 0.05 | 
2 | CC(C)Cn1cnc2c(N)nc3ccc(N)cc3c21 |  | No induction
3 | Nc1nc2ccccc2c2c1ncn2CCCc1ccccc1 |  | No induction
4 | CC(C)(O)Cn1cnc2c(N)nc3ccccc3c21 | 0.5 | 
5 | CC(C)Cn1cnc2c(N)nc3ccc(Br)cc3c21 |  | No induction
6 | CCCCCCn1cnc2c(N)nc3ccccc3c21 | 0.5 | 
7 | CCCn1cnc2c(N)nc3ccccc3c21 | 0.5 | 
8 | Cc1nc2c(N)nc3ccccc3c2n1CC(C)C | 0.05 | 
9 | CCCCCCCCn1cnc2c(N)nc3ccccc3c21 |  | No induction
10 | CCCCc1nc2c(N)nc3ccccc3c2n1-c1ccccc1 | 0.5 | 
11 | Nc1nc2ccccc2c2c1ncn2CCO | 0.5 | 
12 | CC(C)(C)n1cnc2c(N)nc3ccccc3c21 |  | No induction
13 | CCCCCc1nc2c(N)nc3ccccc3c2n1CC(C)C | 0.05 | 
14 | CC(C)Cn1c(C(F)(F)F)nc2c(N)nc3ccccc3c21 |  | No induction
15 | Cc1ccc2c(c1)nc(N)c1ncn(CC(C)C)c12 | 0.5 | 
16 | CC(C)Cn1c(-c2ccccc2)nc2c(N)nc3ccccc3c21 |  | No induction
17 | CC(C)Cn1c(CCc2ccccc2)nc2c(N)nc3ccccc3c21 | 1 | 
18 | CCCCCCc1nc2c(N)nc3ccccc3c2n1CC(C)C | 0.5 | 
19 | CC(C)Cn1cnc2c(N)nc3ccc(Cl)cc3c21 |  | No induction
20 | CC(C)Cc1nc2c(N)nc3ccccc3c2n1CC(C)(C)O | 0.01 | 
21 | COc1ccc2c(c1)nc(N)c1ncn(CC(C)C)c12 | 1 | 

Row | Compound | minimal effective concentration [1] [µg/mL] | MEC (Homo sapiens)
22 | CCn1cnc2c(N)nc3ccccc3c21 | 0.5 | 
23 | CCCCCCCn1cnc2c(N)nc3ccccc3c21 | 0.5 | 
24 | CC(C)Cn1cnc2c(N)nc3ccc([N+](=O)[O-])cc3c21 |  | No induction
25 | CC(C)Cn1cnc2c(N)nc3ccc(O)cc3c21 |  | No induction
26 | CC(C)Cn1c(COc2ccccc2)nc2c(N)nc3ccccc3c21 | 0.1 | 
27 | Nc1nc2ccccc2c2c1ncn2CCc1ccccc1 | 0.5 | 
28 | Nc1[nH]c2ccccc2c2ncnc1-2 | 0.5 | 
29 | Cc1cccc2nc(N)c3ncn(CC(C)C)c3c12 |  | No induction
30 | Cn1cnc2c(N)nc3ccccc3c21 | 0.5 | 
31 | COc1ccc2nc(N)c3ncn(CC(C)C)c3c2c1 |  | No induction
32 | Nc1nc2ccccc2c2c1ncn2-c1ccccc1 |  | No induction
33 | CC(C)Cn1cnc2c(N)nc3c(O)cccc3c21 | 1 | 
34 | Nc1nc2ccccc2c2c1ncn2CC(O)CO (stereo unspecified) | 5 | 
35 | CC(C)Cn1cnc2c(NC(=O)c3ccccc3)nc3ccccc3c21 |  | No induction
36 | CCCCCCCCCCCCCCCCn1cnc2c(N)nc3ccccc3c21 |  | No induction
37 | COc1cccc2c1nc(N)c1ncn(CC(C)C)c12 |  | No induction
38 | CCCCc1nc2c(N)nc3ccccc3c2n1CC(C)C | 0.01 | 
39 | CC(O)Cn1cnc2c(N)nc3ccccc3c21 (stereo unspecified) | 0.5 | 
40 | CNc1nc2ccccc2c2c1ncn2CC(C)C |  | No induction
41 | Nc1nc2ccccc2c2c1ncn2Cc1ccccc1 | 0.1 | 
42 | Cc1ccc2nc(N)c3ncn(CC(C)C)c3c2c1 |  | No induction

Row | Compound | minimal effective concentration [1] [µg/mL] | MEC (Homo sapiens)
43 | CC(C)n1cnc2c(N)nc3ccccc3c21 | 0.5 | 
44 | CCc1nc2c(N)nc3ccccc3c2n1CC(C)C | 0.05 | 
45 | CCCCCCCc1nc2c(N)nc3ccccc3c2n1CC(C)C | 1 | 
46 | Cc1cccc2c1nc(N)c1ncn(CC(C)C)c12 |  | No induction
47 | CCCCCn1cnc2c(N)nc3ccccc3c21 | 0.5 | 
48 | CCc1nc2c(N)nc3ccccc3c2n1CC(C)(C)O | 0.05 | 
49 | CC(C)Cn1cnc2cnc3ccccc3c21 |  | No induction
50 | CC(C)Cn1cnc2c(N)nc3ccccc3c21 [IMIQUIMOD] | 0.5 | 
51 | CSc1nc2ccccc2c2c1ncn2CC(C)C |  | No induction
52 | CC(C)Cn1c(Oc2ccccc2)nc2c(N)nc3ccccc3c21 |  | No induction
53 | COc1nc2c(N)nc3ccccc3c2n1CC(C)C |  | No induction
54 | Cc1nc2c(N)nc3ccccc3c2n1CC(C)(C)O | 0.05 | 
55 | Nc1nc2ccccc2c2c1ncn2CCCCc1ccccc1 | 0.1 | 
56 | CCCc1nc2c(N)nc3ccccc3c2n1CC(C)C | 0.05 | 
57 | CC(C)Cn1cnc2c(N)nc3cc(O)ccc3c21 | 0.5 | 
58 | CC(C)Cn1cnc2c(Cl)nc3ccccc3c21 |  | No induction
59 | COc1nc2ccccc2c2c1ncn2CC(C)C |  | No induction
60 | CCCCn1cnc2c(N)nc3ccccc3c21 | 0.5 | 
61 | CC(C)Cn1cnc2c(O)nc3ccccc3c21 |  | No induction
